ChEMBL document CHEMBL2150853 (Eur J Med Chem, 2011)

What was measured:
[1] = Antiprion activity against mouse prion protein RML infected mouse ScN2a cells assessed as reduction of PrPSc level by Western blot method; assay type: cell-based
[2] = Antiprion activity against human prion protein Fukuoka-1 infected mouse F3 cells assessed as reduction of PrPSc level by Western blot method; assay type: cell-based; conditions: N2a #58 F3
[3] = Antiprion activity against mouse prion protein 22L infected mouse N167 cells assessed as reduction of PrPSc level by Western blot method; assay type: cell-based
N167 = experiment: Antiprion activity against mouse prion protein 22L infected mouse N167 cells assessed as drug level required for more than 99 percent reduction of PrPSc level by Western blot method; assay type: cell-based
[4] = Cytotoxicity against mouse N2A cells assessed as maximal tolerant concentration; assay type: cell-based; conditions: read-out: MTD
ScN2a = experiment: Antiprion activity against mouse prion protein RML infected mouse ScN2a cells assessed as drug level required for more than 99 percent reduction of PrPSc level by Western blot method; assay type: cell-based
[5] = target: Major prion protein (Homo sapiens) (UniProt P04156); experiment: Binding affinity to truncated human PrP 121-231 at 50 uM by surface plasmon resonance method
N2a #58 F3 = experiment: Antiprion activity against human prion protein Fukuoka-1 infected mouse F3 cells assessed as drug level required for more than 99 percent reduction of PrPSc level by Western blot method; assay type: cell-based
[6] = Effective permeability of the compound at pH 7.4 at 30 to 50 uM by PAMPA assay; assay type: ADME; conditions: read-out: Peff
[7] = Solubility of the compound in phosphate buffer at 50 uM; assay type: physicochemical
human MDR1 [8] = assay type: ADME, cell-based, Canis lupus familiaris; conditions: dog, MDCK-MDR1
MDCK [9] = experiment: Permeability from basolateral to apical side of in wild type MDCK cells assessed as adsorption on transwell at 10 uM after 2 hrs; assay type: ADME, cell-based, Canis lupus familiaris; conditions: dog
MDCK [10] = assay type: ADME, cell-based, Canis lupus familiaris; conditions: dog, 2 h, 10 µM
MDCK [11] = experiment: Permeability from apical to basolateral side of in P-glycoprotein-mediated MDCK cells over expressing human MDR1 assessed as cell retention at 10 uM after 2 hrs; assay type: ADME, cell-based, Canis lupus familiaris; conditions: dog
MDCK [12] = experiment: Permeability from apical to basolateral side of in wild type MDCK cells assessed as cell retention at 10 uM after 2 hrs; assay type: ADME, cell-based, Canis lupus familiaris; conditions: dog
MDCK [13] = assay type: ADME, cell-based, Canis lupus familiaris; conditions: dog, 2 h, 10 µM; remark: listed apart in the source
MDCK [14] = experiment: Permeability from basolateral to apical side of in P-glycoprotein-mediated MDCK cells over expressing human MDR1 assessed as cell retention at 10 uM after 2 hrs; assay type: ADME, cell-based, Canis lupus familiaris; conditions: dog
human MDR1 [15] = assay type: ADME, cell-based, Canis lupus familiaris; conditions: dog, MDCK-MDR1; remark: listed apart in the source
MDCK [16] = experiment: Permeability from basolateral to apical side of in wild type MDCK cells assessed as cell retention at 10 uM after 2 hrs; assay type: ADME, cell-based, Canis lupus familiaris; conditions: dog
MDCK [17] = experiment: Permeability from apical to basolateral side of in wild type MDCK cells assessed as adsorption on transwell at 10 uM after 2 hrs; assay type: ADME, cell-based, Canis lupus familiaris; conditions: dog

Structure (SMILES)	EC50 [1]	EC50 [2]	EC50 [3]	Activity (N167)	MNTC [4]	Activity (ScN2a)	RUmax [5]	Activity (N2a #58 F3)	Papp at up to 50 µM [6]	other results
Clc1ccc2c(NC3CCN(Cc4ccccc4)CC3)ccnc2c1	0.15 µM	1.2 µM	0.23 µM	2 µM	> 10 µM	1 µM	114%	3 µM	–	–
COc1ccc2nc3cc(Cl)ccc3c(N)c2c1	–	–	–	–	–	–	139%	–	148 nm/s	–
COc1ccc2nc3cc(Cl)ccc3c(Nc3ccccc3)c2c1	0.54 µM	–	–	–	5 µM	–	–	–	–	solubility [7]: Insoluble
COc1ccc2nc3cc(Cl)ccc3c(NCC#CCN3CCN(C)CC3)c2c1	0.027 µM	–	0.99 µM	3 µM	8 µM	1 µM	–	–	115 nm/s	solubility [7]: Insoluble
COc1ccc2nc3cc(Cl)ccc3c(NC3CCN(CCCc4ccccc4)CC3)c2c1	0.093 µM	1.04 µM	0.32 µM	1 µM	4 µM	1 µM	115%	3 µM	–	–
CCN(CC)CCCNc1c2ccc(Cl)cc2nc2ccc(OC)cc12	–	–	–	–	–	–	162%	–	220 nm/s	–
CN1CCN(c2ccc(Nc3ccnc4cc(Cl)ccc34)cc2)CC1	0.14 µM	2.04 µM	0.53 µM	2 µM	10 µM	1 µM	165%	–	–	–
CN1CCN(c2ccc(Nc3c4c(nc5cc(Cl)ccc35)CCCC4)cc2)CC1	0.082 µM	–	–	–	> 10 µM	1 µM	127%	–	–	–
COc1ccc2nc3cc(Cl)ccc3c(Nc3ccc(CN4CCN(C)CC4)cc3)c2c1	0.06 µM	0.86 µM	0.35 µM	2 µM	4 µM	0.5 µM	207%	3 µM	–	–
CCN1CCN(c2ccc(Nc3c4ccc(Cl)cc4nc4ccc(OC)cc34)cc2)CC1	0.08 µM	–	0.96 µM	–	3 µM	1 µM	194%	–	61.3 nm/s	–
COc1ccc2nc3cc(Cl)ccc3c(Nc3ccc(CN4CCCCC4)cc3)c2c1	0.099 µM	0.64 µM	0.51 µM	1 µM	5 µM	0.5 µM	144%	3 µM	52.8 nm/s	–
COc1ccc2nc3cc(Cl)ccc3c(N(C)c3ccccc3)c2c1	2.51 µM	–	–	–	8 µM	5 µM	43.2%	–	–	–
CCN(CC)CCCC(C)Nc1c2ccc(Cl)cc2nc2ccc(OC)cc12 (centres undefined) [QUINACRINE]	0.23 µM	–	0.59 µM	–	2.5 µM	0.8 µM	87.3%	–	193 nm/s	Papp B→A at 2 h, 10 µM (human MDR1 [8]): 67 nm/s; permeability (MDCK [9]): 3.2%; permeability (MDCK [10]): 3.9%; permeability (MDCK [11]): 35.5%; permeability (MDCK [12]): 80.2%; permeability (MDCK [13]): 5.5%; permeability (MDCK [14]): 24.5%; Papp A→B at 2 h, 10 µM (human MDR1 [15]): 12.3 nm/s; permeability (MDCK [16]): 27.7%; permeability (MDCK [17]): 5.3%
COc1ccc2nc3cc(Cl)ccc3c(NC3CCN(Cc4ccc(C)cc4)CC3)c2c1	0.15 µM	0.63 µM	0.62 µM	1 µM	5 µM	3 µM	69.8%	3 µM	–	–
CCN(CC)CCCCNc1c2ccc(Cl)cc2nc2ccc(OC)cc12	–	–	–	–	–	–	178%	–	164 nm/s	–
